Here are results for five compounds from PMC12472888 (Molecules, 2025).

Holding throughout (type): biochemical
In one experiment the target is T1, human recombinant COX-2 (Homo sapiens, UniProt P35354).
T1 construct: gene PTGS2; homodimer; docking used mouse COX-2 (not this entry)
T1 sequence (P35354 18-604): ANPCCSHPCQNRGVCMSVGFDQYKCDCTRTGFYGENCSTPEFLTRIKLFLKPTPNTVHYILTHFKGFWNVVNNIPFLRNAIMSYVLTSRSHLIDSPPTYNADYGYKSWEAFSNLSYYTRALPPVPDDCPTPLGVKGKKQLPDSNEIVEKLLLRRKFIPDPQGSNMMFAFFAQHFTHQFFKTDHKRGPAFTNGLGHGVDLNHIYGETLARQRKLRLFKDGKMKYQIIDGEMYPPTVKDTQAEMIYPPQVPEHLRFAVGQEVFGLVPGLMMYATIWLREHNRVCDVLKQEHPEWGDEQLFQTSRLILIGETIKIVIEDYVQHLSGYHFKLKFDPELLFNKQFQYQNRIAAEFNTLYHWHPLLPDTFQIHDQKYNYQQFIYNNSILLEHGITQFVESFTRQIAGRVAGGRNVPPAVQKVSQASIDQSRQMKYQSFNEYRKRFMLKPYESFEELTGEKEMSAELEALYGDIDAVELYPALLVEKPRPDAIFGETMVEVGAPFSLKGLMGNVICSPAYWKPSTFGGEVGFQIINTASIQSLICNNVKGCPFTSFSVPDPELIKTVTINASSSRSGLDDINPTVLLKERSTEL
Nature of the experiment: Cayman COX inhibitor screening kit, prostanoid enzyme immunoassay. From the text: Cayman COX inhibitor screening kit, prostanoid enzyme immunoassay on human recombinant COX-2

The next experiment deals with T2, ovine COX-1 (Ovis aries, UniProt P05979).
T2 construct: gene PTGS1; homodimer
T2 sequence (P05979 25-600): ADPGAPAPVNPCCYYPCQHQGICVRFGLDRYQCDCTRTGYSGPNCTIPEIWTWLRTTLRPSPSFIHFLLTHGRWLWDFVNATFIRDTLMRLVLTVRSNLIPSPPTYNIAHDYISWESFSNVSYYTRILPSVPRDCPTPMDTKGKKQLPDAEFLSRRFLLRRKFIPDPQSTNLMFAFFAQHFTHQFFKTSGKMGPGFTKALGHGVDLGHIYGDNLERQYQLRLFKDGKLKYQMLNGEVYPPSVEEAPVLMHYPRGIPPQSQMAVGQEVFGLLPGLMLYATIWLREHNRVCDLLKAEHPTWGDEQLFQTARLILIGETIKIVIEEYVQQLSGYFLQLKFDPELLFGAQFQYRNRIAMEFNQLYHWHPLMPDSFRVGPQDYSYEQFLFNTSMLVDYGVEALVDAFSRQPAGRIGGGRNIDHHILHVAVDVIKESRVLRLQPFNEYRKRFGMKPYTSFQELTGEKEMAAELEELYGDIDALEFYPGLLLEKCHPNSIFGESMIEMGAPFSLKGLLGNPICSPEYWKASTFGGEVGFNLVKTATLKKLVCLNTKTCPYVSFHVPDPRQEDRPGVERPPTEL
Described as above. An excerpt:
Cayman COX inhibitor screening kit, prostanoid enzyme immunoassay on ovine COX-1

The target of experiment [1] is T3, lipoxygenase type I-B from soybean (Glycine max, UniProt P08170).
T3 construct: gene LOX1.1; commercial native soybean enzyme (Sigma type I-B), full length
T3 sequence (P08170 1-839): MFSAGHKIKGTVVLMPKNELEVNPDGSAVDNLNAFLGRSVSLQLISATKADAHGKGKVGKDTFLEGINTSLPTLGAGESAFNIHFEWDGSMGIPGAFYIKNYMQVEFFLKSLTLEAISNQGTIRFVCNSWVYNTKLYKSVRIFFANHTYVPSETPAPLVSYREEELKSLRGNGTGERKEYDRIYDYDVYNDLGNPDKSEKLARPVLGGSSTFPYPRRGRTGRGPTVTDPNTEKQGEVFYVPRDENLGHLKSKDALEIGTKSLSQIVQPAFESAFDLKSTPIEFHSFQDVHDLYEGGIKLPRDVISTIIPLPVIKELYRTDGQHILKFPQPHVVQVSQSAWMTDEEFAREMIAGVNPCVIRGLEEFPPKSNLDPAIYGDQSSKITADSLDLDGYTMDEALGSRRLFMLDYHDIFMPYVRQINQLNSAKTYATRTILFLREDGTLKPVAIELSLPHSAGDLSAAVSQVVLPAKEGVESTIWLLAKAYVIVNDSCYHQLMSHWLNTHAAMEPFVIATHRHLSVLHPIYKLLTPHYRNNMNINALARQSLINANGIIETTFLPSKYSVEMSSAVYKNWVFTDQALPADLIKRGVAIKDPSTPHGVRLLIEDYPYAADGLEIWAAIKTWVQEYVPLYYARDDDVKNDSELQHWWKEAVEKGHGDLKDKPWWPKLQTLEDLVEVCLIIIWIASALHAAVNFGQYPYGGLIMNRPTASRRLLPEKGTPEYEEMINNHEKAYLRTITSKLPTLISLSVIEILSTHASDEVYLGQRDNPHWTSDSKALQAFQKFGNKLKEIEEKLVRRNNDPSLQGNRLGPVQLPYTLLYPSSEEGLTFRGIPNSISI
The experiment is described as follows: UV absorbance at […] nm, linoleate oxidation.

As for `CC(C)Cc1ccc(C(C)C(=O)NCCC(=O)OCCO[N+](=O)[O-])cc1` (racemic) [compound 5, 2-(Nitrooxy)ethyl-3-(2-(4-isobutylphenyl)propanamido)propanoate], the inhibition at 0.05 µM at human recombinant COX-2 was found to be 95%; against ovine COX-1, 67%. In experiment [1], the IC50 was determined as 78 µM.
Regarding `CC(C)Cc1ccc(C(C)C(=O)N2CCC[C@H]2C(=O)OCCO[N+](=O)[O-])cc1` (stereo partly shown) [compound 6, 2-(Nitrooxy)ethyl-1-(2-(4-isobutylphenyl)propanoyl)pyrrolidine-2-carboxylate], the IC50 in experiment [1] was 264 µM.
Turning to `COc1ccc2cc([C@H](C)C(=O)NCCC(=O)OCCO[N+](=O)[O-])ccc2c1` [compound 7, 2-(Nitrooxy)ethyl-3-(2-(6-methoxynaphthalen-2-yl)propanamido)propanoate], the IC50 in experiment [1] came to 51 µM.
Compound `COc1ccc2cc([C@H](C)C(=O)N3CCC[C@H]3C(=O)OCCO[N+](=O)[O-])ccc2c1` [compound 8, 2-(Nitrooxy)ethyl-1-(2-(6-methoxynaphthalen-2-yl)propanoyl)pyrrolidine-2-carboxylate] returned an IC50 in experiment [1] of 184 µM.
Compound `COc1ccc2cc([C@H](C)C(=O)NCCC(=O)OCCO)ccc2c1` [compound 9, 2-Hydroxyethyl 3-(2-(6-methoxynaphthalen-2-yl)propanamido)propanoate] came in with an inhibition at 0.05 µM against ovine COX-1 of 73%.
